{
  "source": "patent US9988400B2",
  "about": "(Genentech, Inc., priority 2013, dated 2018)",
  "data": [
    {"target": "T1, HEK cells stably transfected with tetracycline inducible hNR1 and hNR2A (Homo sapiens, UniProt Q05586+Q12879)", "T1 construct": "expressed in transfected cells; host or cells: HEK cells, stably transfected, tetracycline/doxycycline inducible", "T1 sequence (Q12879 23-1464, other chains not shown)": "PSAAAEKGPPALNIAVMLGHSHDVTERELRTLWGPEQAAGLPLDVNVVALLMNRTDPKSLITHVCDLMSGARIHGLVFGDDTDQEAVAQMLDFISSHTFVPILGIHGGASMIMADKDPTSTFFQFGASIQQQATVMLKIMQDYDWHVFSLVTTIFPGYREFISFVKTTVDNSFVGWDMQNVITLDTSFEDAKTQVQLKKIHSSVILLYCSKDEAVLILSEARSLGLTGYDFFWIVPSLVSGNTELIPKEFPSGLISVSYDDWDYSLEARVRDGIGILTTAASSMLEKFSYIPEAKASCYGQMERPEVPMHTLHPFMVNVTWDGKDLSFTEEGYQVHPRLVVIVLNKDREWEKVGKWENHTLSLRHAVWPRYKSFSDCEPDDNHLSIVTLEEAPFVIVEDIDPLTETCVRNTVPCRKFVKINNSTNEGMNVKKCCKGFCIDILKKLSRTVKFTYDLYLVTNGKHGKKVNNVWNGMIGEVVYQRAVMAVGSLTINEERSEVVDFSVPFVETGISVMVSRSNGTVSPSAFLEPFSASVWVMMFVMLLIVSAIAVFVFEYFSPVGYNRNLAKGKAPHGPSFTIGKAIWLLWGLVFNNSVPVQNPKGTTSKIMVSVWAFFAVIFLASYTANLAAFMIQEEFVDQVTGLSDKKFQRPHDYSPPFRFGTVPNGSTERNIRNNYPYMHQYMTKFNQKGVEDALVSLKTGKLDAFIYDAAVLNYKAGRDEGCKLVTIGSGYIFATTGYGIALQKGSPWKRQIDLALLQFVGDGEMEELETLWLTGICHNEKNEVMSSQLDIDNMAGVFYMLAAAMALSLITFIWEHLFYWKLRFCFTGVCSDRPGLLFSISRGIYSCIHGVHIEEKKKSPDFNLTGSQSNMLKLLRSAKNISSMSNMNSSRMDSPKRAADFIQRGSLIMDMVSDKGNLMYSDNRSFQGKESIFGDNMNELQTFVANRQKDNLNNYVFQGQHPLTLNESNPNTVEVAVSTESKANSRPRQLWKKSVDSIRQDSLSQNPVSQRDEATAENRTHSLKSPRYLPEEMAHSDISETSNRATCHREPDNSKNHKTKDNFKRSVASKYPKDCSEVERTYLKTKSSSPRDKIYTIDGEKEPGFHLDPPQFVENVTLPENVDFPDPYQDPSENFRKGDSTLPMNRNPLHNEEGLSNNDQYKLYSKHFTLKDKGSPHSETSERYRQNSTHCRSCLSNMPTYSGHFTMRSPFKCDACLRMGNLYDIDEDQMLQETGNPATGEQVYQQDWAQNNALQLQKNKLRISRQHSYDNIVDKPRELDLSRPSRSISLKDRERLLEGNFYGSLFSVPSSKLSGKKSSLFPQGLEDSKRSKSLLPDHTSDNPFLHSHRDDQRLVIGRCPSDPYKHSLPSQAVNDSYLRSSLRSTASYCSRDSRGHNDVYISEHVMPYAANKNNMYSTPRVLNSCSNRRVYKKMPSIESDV", "assay": "Assay 1: Cell-Based Assay, cytosolic calcium response to positive allosteric modulators (with 30 μM glycine and 300 nM L-glutamate, EC30)", "conditions": "Table 3; cytosolic calcium response, with 30 μM glycine and 300 nM L-glutamate (EC30); — = no plateau was reached", "summary_of_the_method": "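Cells induced 24 h with 7.5 μg mL^−1 doxycycline plus 500 μM (+)-ketamine, loaded 60 min at 37 °C with calcium dye in Mg-free HBSS (1.8 mM Ca, probenecid, 10 μM (+)-ketamine, pH 7.15). Peak RFU over 5 min after compound addition, scaled to 100 μM L-glutamate (100%) and 0 μM (0%); four-parameter Hill fit for EC50, max % if no plateau.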", "units": {"EC50": "µM"}, "values": [
      {"molecule": "Cc1sc2nc(Cc3cc(C(F)(F)F)ccc3Cl)cc(=O)n2c1C1CC1C#N", "note": "(stereo not drawn) [compound 187, 2-[7-[[2-chloro-5-(trifluoromethyl)phenyl]methyl]-2-methyl-5-oxo-thiazolo[3,2-a]pyrimidin-3-yl]cyclopropanecarbonitrile]", "EC50": 11.1},
      {"molecule": "Cc1sc2nc(Cn3nc(C(F)(F)F)cc3Cl)cc(=O)n2c1C1CCC1", "note": "[compound 188, 7-[[5-chloro-3-(trifluoromethyl)pyrazol-1-yl]methyl]-3-cyclobutyl-2-methyl-thiazolo[3,2-a]pyrimidin-5-one]", "EC50": 3.14},
      {"molecule": "Cc1sc2nc(Cn3nc(Cl)cc3C(F)(F)F)cc(=O)n2c1C1CCC1", "note": "[compound 189, 7-[[3-chloro-5-(trifluoromethyl)pyrazol-1-yl]methyl]-3-cyclobutyl-2-methyl-thiazolo[3,2-a]pyrimidin-5-one]", "EC50": 7.45},
      {"molecule": "Cc1sc2nc(CN(C)c3ccc(Cl)cn3)cc(=O)n2c1C1CC1C#N", "note": "(stereo not drawn) [compound 190, 2-[7-[[(5-chloro-2-pyridyl)-methyl-amino]methyl]-2-methyl-5-oxo-thiazolo[3,2-a]pyrimidin-3-yl]cyclopropanecarbonitrile]", "EC50": 0.779},
      {"molecule": "Cc1sc2nc(Cn3nc(C(F)(F)F)cc3Cl)cc(=O)n2c1Cl", "note": "[compound 192, 3-chloro-7-[[5-chloro-3-(trifluoromethyl)pyrazol-1-yl]methyl]-2-methyl-thiazolo[3,2-a]pyrimidin-5-one]", "EC50": 0.198},
      {"molecule": "Cc1sc2nc(Cn3nc(Cl)cc3C(F)(F)F)cc(=O)n2c1Cl", "note": "[compound 193, 3-chloro-7-[[3-chloro-5-(trifluoromethyl)pyrazol-1-yl]methyl]-2-methyl-thiazolo[3,2-a]pyrimidin-5-one]", "EC50": 0.243},
      {"molecule": "COc1cc(F)c(F)cc1Cc1cc(=O)n2c(C3CC3C#N)c(C)sc2n1", "note": "(stereo not drawn) [compound 194, 2-[7-[(4,5-difluoro-2-methoxy-phenyl)methyl]-2-methyl-5-oxo-thiazolo[3,2-a]pyrimidin-3-yl]cyclopropanecarbonitrile]", "EC50": 1.28},
      {"molecule": "CCN(Cc1cc(=O)n2c(C3CC3C#N)c(C)sc2n1)c1ccc(F)cn1", "note": "(stereo not drawn) [compound 195, 2-[7-[[ethyl-(5-fluoro-2-pyridyl)amino]methyl]-2-methyl-5-oxo-thiazolo[3,2-a]pyrimidin-3-yl]cyclopropanecarbonitrile]", "EC50": 0.0742},
      {"molecule": "CCN(Cc1cc(=O)n2c(C3CC3CO)c(C)sc2n1)c1ccc(Cl)cn1", "note": "(stereo not drawn) [compound 196, 7-[[(5-chloro-2-pyridyl)-ethyl-amino]methyl]-3-[2-(hydroxymethyl)cyclopropyl]-2-methyl-thiazolo[3,2-a]pyrimidin-5-one]", "EC50": 0.0642},
      {"molecule": "Cc1sc2nc(Cn3nc(C(F)(F)F)cc3Cl)cc(=O)n2c1-c1cncc(C#N)c1", "note": "[compound 197, 5-[7-[[5-chloro-3-(trifluoromethyl)pyrazol-1-yl]methyl]-2-methyl-5-oxo-thiazolo[3,2-a]pyrimidin-3-yl]pyridine-3-carbonitrile]", "EC50": 0.327},
      {"molecule": "Cc1sc2nc(Cn3nc(C(F)(F)F)cc3Cl)cc(=O)n2c1C(=O)C(F)(F)F", "note": "[compound 198, 7-[[5-chloro-3-(trifluoromethyl)pyrazol-1-yl]methyl]-2-methyl-3-(2,2,2-trifluoroacetyl)thiazolo[3,2-a]pyrimidin-5-one]", "EC50": 0.201},
      {"molecule": "CC1CC1c1c(C(F)(F)F)sc2nc(Cn3nc(C(F)(F)F)cc3Cl)cc(=O)n12", "note": "(stereo not drawn) [compound 199, 7-[[5-chloro-3-(trifluoromethyl)pyrazol-1-yl]methyl]-3-(2-methylcyclopropyl)-2-(trifluoromethyl)thiazolo[3,2-a]pyrimidin-5-one]", "EC50": 1.39},
      {"molecule": "CC1CC1c1c(C(F)(F)F)sc2nc(Cn3nc(Cl)cc3C(F)(F)F)cc(=O)n12", "note": "(stereo not drawn) [compound 200, 7-[[3-chloro-5-(trifluoromethyl)pyrazol-1-yl]methyl]-3-(2-methylcyclopropyl)-2-(trifluoromethyl)thiazolo[3,2-a]pyrimidin-5-one]", "EC50": 3.13},
      {"molecule": "CCc1sc2nc(Cn3nc(C(F)(F)F)cc3Cl)cc(=O)n2c1-c1cccnc1", "note": "[compound 202, 7-[[5-chloro-3-(trifluoromethyl)pyrazol-1-yl]methyl]-2-ethyl-3-(3-pyridyl)thiazolo[3,2-a]pyrimidin-5-one]", "EC50": 23.9},
      {"molecule": "Cc1sc2nc(Cn3nc(C(F)(F)F)cc3Cl)cc(=O)n2c1C(O)C(F)(F)F", "note": "(stereo not drawn) [compound 203, 7-[[5-chloro-3-(trifluoromethyl)pyrazol-1-yl]methyl]-2-methyl-3-(2,2,2-trifluoro-1-hydroxy-ethyl)thiazolo[3,2-a]pyrimidin-5-one]", "EC50": 5.85},
      {"molecule": "CCNC(=O)c1c(C)sc2nc(CN(CC)c3ccc(Br)cn3)cc(=O)n12", "note": "[compound 204, 7-[[(5-bromo-2-pyridyl)-ethyl-amino]methyl]-N-ethyl-2-methyl-5-oxo-thiazolo[3,2-a]pyrimidine-3-carboxamide]", "EC50": 5.12},
      {"molecule": "CCNC(=O)c1c(C(F)(F)F)sc2nc(CN(CC)c3ccc(F)cn3)cc(=O)n12", "note": "[compound 205, N-ethyl-7-[[ethyl-(5-fluoro-2-pyridyl)amino]methyl]-5-oxo-2-(trifluoromethyl)thiazolo[3,2-a]pyrimidine-3-carboxamide]", "EC50": 1.12},
      {"molecule": "O=c1cc(Cn2nc(C(F)(F)F)cc2Cl)nc2sc(C(F)(F)F)c(N3CCC3)n12", "note": "[compound 206, 3-(Azetidin-1-yl)-7-[[5-chloro-3-(trifluoromethyl)pyrazol-1-yl]methyl]-2-(trifluoromethyl)thiazolo[3,2-a]pyrimidin-5-one]", "EC50": 7.19},
      {"molecule": "COc1cc(C(F)(F)F)nn1Cc1cc(=O)n2c(C3CC3C#N)c(C)sc2n1", "note": "(stereo not drawn) [compound 209, 2-[7-[[5-methoxy-3-(trifluoromethyl)pyrazol-1-yl]methyl]-2-methyl-5-oxo-thiazolo[3,2-a]pyrimidin-3-yl]cyclopropanecarbonitrile]", "EC50": 0.0666},
      {"molecule": "COc1cc(C(F)(F)F)n(Cc2cc(=O)n3c(C4CC4C#N)c(C)sc3n2)n1", "note": "(stereo not drawn) [compound 210, 2-[7-[[3-methoxy-5-(trifluoromethyl)pyrazol-1-yl]methyl]-2-methyl-5-oxo-thiazolo[3,2-a]pyrimidin-3-yl]cyclopropanecarbonitrile]", "EC50": 8.92},
      {"molecule": "CCc1sc2nc(Cn3nc(C(F)(F)F)cc3Cl)cc(=O)n2c1C(C)=O", "note": "[compound 211, 3-acetyl-7-[[5-chloro-3-(trifluoromethyl)pyrazol-1-yl]methyl]-2-ethyl-thiazolo[3,2-a]pyrimidin-5-one]", "EC50": 0.31},
      {"molecule": "CCc1sc2nc(Cn3nc(Cl)cc3C(F)(F)F)cc(=O)n2c1C(C)=O", "note": "[compound 212, 3-acetyl-7-[[3-chloro-5-(trifluoromethyl)pyrazol-1-yl]methyl]-2-ethyl-thiazolo[3,2-a]pyrimidin-5-one]", "EC50": 5.84},
      {"molecule": "CCc1sc2nc(Cn3nc(C(F)(F)F)cc3Cl)cc(=O)n2c1C1CC1C#N", "note": "(stereo not drawn) [compound 213, 2-[7-[[5-chloro-3-(trifluoromethyl)pyrazol-1-yl]methyl]-2-ethyl-5-oxo-thiazolo[3,2-a]pyrimidin-3-yl]cyclopropanecarbonitrile]", "EC50": 0.066},
      {"molecule": "CCc1sc2nc(Cn3nc(Cl)cc3C(F)(F)F)cc(=O)n2c1C1CC1C#N", "note": "(stereo not drawn) [compound 214, 2-[7-[[3-chloro-5-(trifluoromethyl)pyrazol-1-yl]methyl]-2-ethyl-5-oxo-thiazolo[3,2-a]pyrimidin-3-yl]cyclopropanecarbonitrile]", "EC50": 0.18},
      {"molecule": "Cc1sc2nc(Cn3nc(C(F)(F)F)cc3Cl)cc(=O)n2c1Br", "note": "[compound 215, 3-bromo-7-[[5-chloro-3-(trifluoromethyl)pyrazol-1-yl]methyl]-2-methyl-thiazolo[3,2-a]pyrimidin-5-one]", "EC50": 0.0911},
      {"molecule": "Cc1sc2nc(Cn3nc(Cl)cc3C(F)(F)F)cc(=O)n2c1Br", "note": "[compound 216, 3-bromo-7-[[3-chloro-5-(trifluoromethyl)pyrazol-1-yl]methyl]-2-methyl-thiazolo[3,2-a]pyrimidin-5-one]", "EC50": 0.0594},
      {"molecule": "COc1sc2nc(Cn3nc(C(F)(F)F)cc3Cl)cc(=O)n2c1Cl", "note": "[compound 217, 3-chloro-7-[[5-chloro-3-(trifluoromethyl)pyrazol-1-yl]methyl]-2-methoxy-thiazolo[3,2-a]pyrimidin-5-one]", "EC50": 4.74},
      {"molecule": "COc1sc2nc(Cn3nc(Cl)cc3C(F)(F)F)cc(=O)n2c1Cl", "note": "[compound 218, 3-chloro-7-[[3-chloro-5-(trifluoromethyl)pyrazol-1-yl]methyl]-2-methoxy-thiazolo[3,2-a]pyrimidin-5-one]", "EC50": 83},
      {"molecule": "CSc1c(C(F)(F)F)sc2nc(Cn3nc(C(F)(F)F)cc3Cl)cc(=O)n12", "note": "[compound 219, 7-[[5-chloro-3-(trifluoromethyl)pyrazol-1-yl]methyl]-3-methylsulfanyl-2-(trifluoromethyl)thiazolo[3,2-a]pyrimidin-5-one]", "EC50": 10.5},
      {"molecule": "CCN(Cc1cc(=O)n2c(C3CC3(C#N)CO)csc2n1)c1ccc(F)cc1", "note": "(stereo not drawn) [compound 220, 2-[7-[(N-Ethyl-4-fluoro-anilino)methyl]-5-oxo-thiazolo[3,2-a]pyrimidin-3-yl]-1-(hydroxymethyl)cyclopropanecarbonitrile]", "EC50": 47},
      {"molecule": "Cc1sc2nc(Cn3nc(C(F)(F)F)cc3Cl)cc(=O)n2c1CC1CC1", "note": "[compound 221, 7-[[5-chloro-3-(trifluoromethyl)pyrazol-1-yl]methyl]-3-(cyclopropylmethyl)-2-methyl-thiazolo[3,2-a]pyrimidin-5-one]", "EC50": 3.76},
      {"molecule": "Cc1sc2nc(Cn3nc(C(F)(F)F)cc3Cl)cc(=O)n2c1C(C)CO", "note": "(stereo not drawn) [compound 222, 7-[[5-Chloro-3-(trifluoromethyl)pyrazol-1-yl]methyl]-3-(2-hydroxy-1-methyl-ethyl)-2-methyl-thiazolo[3,2-a]pyrimidin-5-one]", "EC50": 2.92},
      {"molecule": "Cc1sc2nc(Cn3nc(Cl)cc3C(F)(F)F)cc(=O)n2c1C(C)CO", "note": "(stereo not drawn) [compound 223, 7-[[3-chloro-5-(trifluoromethyl)pyrazol-1-yl]methyl]-3-(2-hydroxy-1-methyl-ethyl)-2-methyl-thiazolo[3,2-a]pyrimidin-5-one]", "EC50": 10.9}
    ]}
  ]
}
